In US6489364B2, “Antiviral protease inhibitors” (priority 1997, dated 2002):
≈ marks a conversion by molar mass, not a printed value. Like-named read-outs stand apart in the source and are kept apart here.

Tests used:
[1] = target: T1, purified HIV proteinase (Human immunodeficiency virus type 1 group M subtype B, UniProt P04585); assay: biochemical
T1 construct: purified HIV proteinase
Experimental: Representative compounds were tested for HIV protease activity in a spectrophotometric enzyme assay using the chromogenic substrate His-Lys-Ala-Arg-Val-Leu-p-nitro-Phe-Glu-Ala-Nle-Ser-amide and purified HIV proteinase. The rate of cleavage is followed by continuously registering the change in absorbance at 300 nm. […]

[2] = system: HIV-1; assay: HIV-1 infected MT4 cell culture, XTT assay; type: cell-based; conditions: second part of Table 1, head EC50, MT4 cells, HIV-1, 6 days, XTT
Experimental: Compounds are also tested for HIV protease activity in cell culture. MT4 cells grown in RPMI 1640 cell culture medium including 10% fetal calf serum are infected with 10 TCID HIV-1 per 2×10^5 cells and cultured for 6 days. XTT is added and the amount of XTT formazan produced in the following 6 hours represents the number of surviving cells. Results are expressed as the ED50, that is the concentration in μg/ml of the compound of the invention which suppresses viral replication by 50%.

[3] = values in parentheses, affinity constant, read-out: (Ki μM)
[4] = Human immunodeficiency virus 1, 144 h, read-out: EC50

CNC(=O)[C@@H](NC(=O)[C@H](OCc1ccccc1)[C@H](O)[C@@H](O)[C@@H](OCc1ccccc1)C(=O)N[C@H](C(=O)NC)C(C)C)C(C)C [Example 1, N1,N6-di[(1S)-2-methyl-1-(methylcarbamoyl)propyl]-(2R,3R,4R,5R)-2,5-di(benzyloxy)-3,4-dihydroxyhexanediamide]
IC50 [1]: 15 nM

CNC(=O)C(NC(=O)C(CC(O)C(OCc1ccccc1)C(=O)NC(C(=O)NC)C(C)C)OCc1ccccc1)C(C)C [Example 3, N1,N6-di[(1S)-2-methyl-1-(methylcarbamoyl)propyl]-(2R,3R,5R)-2,5-di(benzaloxy)-3-hydroxyhexanediamide]
IC50 ([1]; values printed without parentheses, concentration inhibiting enzyme performance by 50%): 4 nM

CCC(C)[C@H](NC(=O)[C@H](OCc1ccccc1)[C@H](O)[C@@H](O)[C@@H](OCc1ccccc1)C(=O)N[C@H](C(=O)NC)C(C)CC)C(=O)NC (stereo partly drawn) [Example 4, N1,N6-di[(1S)-2-methyl-1-(methylcarbamoyl)butyl]-(2R,3R,4R,5R)-2,5-di(benzyloxy)-3,4-dihydroxyhexanediamide]
Ki [1, 3]: 0.009 µM

CNC(=O)[C@@H](NC(=O)[C@H](OCc1ccc(F)cc1)[C@H](O)[C@@H](O)[C@@H](OCc1ccc(F)cc1)C(=O)N[C@H](C(=O)NC)C(C)C)C(C)C [Example 7, N1,N6-di[(1S)-2-methyl-1-(methylcarbamoyl)propyl]-(2R,3R,4R,5R)-2,5-di[(4-fluorobenzyl)oxy]-3,4-dihydroxyhexanediamide]
Ki [1, 3]: 0.0023 µM

CC(C)C(NC(=O)C(OCc1ccccc1)C(O)C(O)C(OCc1ccccc1)C(=O)NC(C(=O)NC1CC1)C(C)C)C(=O)NC1CC1 [Example 8, N1,N6-di[(1S)-2-methyl-1-(cyclopropylcarbamoyl)propyl]-(2R,3 R,4R,5R)-25-di(benzyloxy)-3,4-dihydroxyhexanediamide]
Ki [1, 3]: 0.0034 µM

CNC(=O)[C@@H](NC(=O)[C@H](OCc1ccccc1C)[C@H](O)[C@@H](O)[C@@H](OCc1ccccc1C)C(=O)N[C@H](C(=O)NC)C(C)C)C(C)C [Example 9, N1,N6-di[(1S)-2-methyl-1-(methylcarbamoyl)propyl]-(2R,3R,4R,5R)-2,5-di[(2-methylbenzyl)oxy]-3,4-dihydroxyhexanediamide]
Ki [1, 3]: 0.0035 µM

O=C(NC1c2ccccc2CC1O)C(OCc1ccccc1)C(O)C(O)C(OCc1ccccc1)C(=O)NC1c2ccccc2CC1O [Example 10, N1,N6-di[(1S,2R)-2-hydroxy-2,3-dihydro-1H-1-indenyl]-(2R,3R,4R,5R)-2.5-di(benzyloxy)-3,4-dihydroxyhexanediamide]
Ki [1]: 0.0016 µM

CNC(=O)C(NC(=O)C(OCc1ccccc1)C(O)C(O)C(OCc1ccccc1)C(=O)NC1c2ccccc2CC1O)C(C)C [Example 11, N1-[(1S,2R)-2-hydroxy-2,3-dihydro-1H-1-indenyl]-N6-[(1S)-2-methyl-1-(methylcarbamoyl)propyl]-(2R,3R,4R,5R,)-2,5-di(benzyloxy)-3,4-dihydroxyhexanediamide]
Ki [1, 3]: 0.0012 µM | EC50 [2, 4]: 0.2 µg/mL (≈ 0.316 µM)

O=C(N[C@H]1c2ccccc2C[C@H]1O)[C@H](OCc1ccccc1F)[C@H](O)[C@@H](O)[C@@H](OCc1ccccc1F)C(=O)N[C@H]1c2ccccc2C[C@H]1O [Example 12, N1,N6-di[(1S,2R)-2-hydroxy-2,3-dihydro-1H-1-indenyl]-(2R,3R,4R,5R)-2,5-di(2-fluorobenzyloxy)-3,4-dihydroxyhexanediamide]
Ki [1, 3]: 0.00013 µM | EC50 [2, 4]: 0.04 µg/mL (≈ 0.0581 µM)

CC(C)[C@H](NC(=O)[C@H](OCc1ccccc1)[C@H](O)[C@@H](O)[C@@H](OCc1ccccc1)C(=O)N[C@H]1c2ccccc2C[C@H]1O)C(=O)NCc1ccccn1 [Example 28, N1-[(1S,2R)-2-hydroxy-2,3-dihydro-1H-1-indenyl]-N6-[(1S)-2-methyl-1-([2-pyridylmethyl]carbamoyl)propyl]-(2R,3R,4R,5R,)-2,5-di(benzyloxy)-3,4-dihydroxyhexanediamide]
EC50 [2]: 0.2 µg/mL (≈ 0.281 µM)
